The assay addresses T1, RecA (Escherichia coli, UniProt P0A7G6).
T1 construct: assay 'as previously described'; homo-oligomer
Description: coupled ATPase assay, ADP to H2O2, amplex red / resorufin fluorescence. The format is biochemical.

T1 sequence (P0A7G6 2-353): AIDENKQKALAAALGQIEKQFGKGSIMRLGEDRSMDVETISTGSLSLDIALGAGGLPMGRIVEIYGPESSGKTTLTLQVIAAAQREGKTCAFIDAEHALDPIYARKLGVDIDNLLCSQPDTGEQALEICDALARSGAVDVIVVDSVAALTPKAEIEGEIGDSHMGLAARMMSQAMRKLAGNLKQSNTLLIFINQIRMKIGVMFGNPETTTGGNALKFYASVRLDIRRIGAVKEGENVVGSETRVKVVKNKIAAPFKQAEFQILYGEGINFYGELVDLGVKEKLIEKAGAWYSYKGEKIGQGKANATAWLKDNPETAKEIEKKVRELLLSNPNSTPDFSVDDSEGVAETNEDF

As to `NCCc1cc(O)c(O)cc1O` [6-hydroxydopamine], the midpoint of inhibition, the IC50, lay at 23 µM.
